Data from article PMC4276521 (Biochemical pharmacology, 2014).
Several values for one entry are separate records, joined by “and”; a condition that tells them apart may be missing. Equal values may be shown once. Where a name gives a salt, the structure may show the parent alone. Read-outs that look alike come from different tables or passages of the source.

What was measured:
DRD2 [1] = biological target: T1, DRD2 (Homo sapiens, UniProt P14416)
DRD2 [2] = biological target: T1, DRD2; remark: listed apart in the source
DRD2 [3] = biological target: T1, DRD2; remark: listed apart in the source
DRD2 [4] = biological target: T1, DRD2; conditions: HEK-AC5/D2 cells; percentage of dopamine's response, standard error in brackets
DRD2 [5] = biological target: T1, DRD2; test: cell-based

T1 sequence (P14416 whole entry, species assumed): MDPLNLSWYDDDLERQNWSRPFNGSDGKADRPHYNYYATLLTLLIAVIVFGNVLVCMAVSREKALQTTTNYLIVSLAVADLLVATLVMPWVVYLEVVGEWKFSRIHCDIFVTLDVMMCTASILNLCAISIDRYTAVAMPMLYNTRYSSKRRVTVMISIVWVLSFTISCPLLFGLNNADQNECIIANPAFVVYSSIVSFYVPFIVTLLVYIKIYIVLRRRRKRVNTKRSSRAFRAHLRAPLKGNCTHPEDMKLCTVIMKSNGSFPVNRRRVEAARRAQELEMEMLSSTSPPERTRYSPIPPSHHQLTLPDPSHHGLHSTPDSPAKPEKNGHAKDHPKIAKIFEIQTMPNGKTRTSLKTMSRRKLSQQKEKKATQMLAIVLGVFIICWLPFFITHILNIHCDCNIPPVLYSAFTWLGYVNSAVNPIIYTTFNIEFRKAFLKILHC

| DMR (AUC) Max (DRD2 [3]) | Gαi/o activation Max (DRD2 [1]; HEK-AC5/D2 cells, percentage of dopamine's response, standard error in brackets) | Gβγ activation Max (DRD2 [2]; HEK-AC2/D2 cells, percentage of dopamine's response, standard error in brackets) | DMR (AUC) Max (DRD2 [3]; HEK-D2 cells, percentage of dopamine's response, standard error in brackets) | SMILES | Gαi/o activation Max (DRD2 [1]) | Gβγ activation Max (DRD2 [2]) | Sensitization Max (DRD2 [4]) | EC50 (DRD2 [5]) [nM] |
| --- | --- | --- | --- | --- | --- | --- | --- | --- |
| 98 (±2) % |  |  |  | CCCN[C@H]1CCc2nc(N)sc2C1 [Pramipexole, pramipexole dihydrochloride] | 87 (±4) % | 98% and 98 (±5) % |  |  |
|  | 81 (±6) % | 70 (±4) % | 100 (±2) % | CCCN(CCC)CCc1cccc2c1CC(=O)N2 [Ropinirole, ropinirole hydrochloride] |  |  | 126 (±3) % |  |
|  |  |  |  | CCCN(CCc1cccs1)[C@H]1CCc2c(O)cccc2C1 [Rotigotine, rotigotine hydrochloride] | 88 (±4) % | 79% and 79 (±4) % |  | 0.05 |
